Results published in US6440938B1, “Prevention and/or treatment of allergic conditions” (The Victoria University of Manchester, priority 1997, dated 2002).

T1: Der p 1 (Dermatophagoides pteronyssinus, UniProt P08176)
T1 sequence (P08176 99-320): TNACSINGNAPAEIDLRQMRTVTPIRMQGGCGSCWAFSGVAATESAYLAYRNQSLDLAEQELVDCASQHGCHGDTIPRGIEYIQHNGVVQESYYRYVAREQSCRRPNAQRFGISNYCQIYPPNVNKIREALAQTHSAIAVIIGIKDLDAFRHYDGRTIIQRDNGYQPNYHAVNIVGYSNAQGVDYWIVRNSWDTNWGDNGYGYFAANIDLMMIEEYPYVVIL

T2: HDM cysteine proteinase fraction (50% precipitate) (Dermatophagoides pteronyssinus, UniProt P08176)
T2 construct: tissue Commonwealth Serum Laboratory, Parkville, Australia; host or cells: spent culture medium of D. pteronyssinus, 50% saturated ammonium sulphate pellet
T2 sequence (P08176 99-320): T1 sequence (P08176 99-320)

B1: SBTI: serine proteinase inhibitor; abbreviation not expanded in the patent (protein, UniProt P01070 25-205, looked up)
Trypsin inhibitor A: DFVLDNEGNPLENGGTYYILSDITAFGGIRAAPTGNERCPLTVVQSRNELDKGIGTIISSPYRIRFIAEGHPLSLKFDSFAVIMLCVGIPTEWSVVEDLPEGPAVKIGENKDAMDGWFRLERVSDDEFNNYKLVFCPQQAEDDKCGDIGISIDHDDGTRRLVVSKNKPLVVQFQKLDKESL

Tests used:
[1] = system: intercellular junctions of MDCK cells (ZO-1, desmoplakin); experiment: Immunocytochemical visualization of intercellular junctions (ZO-1, desmoplakin); assay type: cell-based, canine
Protocol: To study the effects of proteinases and inhibitors on intercellular junctions, MDCK cells were cultured on coverslips and treated with the appropriate proteinase and/or inhibitor for the desired time period. The cells were fixed in ice-cold methanol before binding of rat anti-ZO-1 (mAb R40.76) (Stevenson et al., 1986; Anderson et al., 1988) and mouse anti-desmoplakin (mAb 11-5F) (Parrish et al., 1987). Indirect fluorescent antibody staining was performed using FITC- and TRITC-conjugated second antibodies. Microscopy was carried out using a Zeiss Axiovert microscope with x40 magnification oil immersion Fluar objective. Specimens were illuminated using excitation and emission filter sets for FITC and TRITC. Cells were photographed as described above.

Calu-3 cell monolayers = experiment: Mannitol permeability of Calu-3 cell monolayers exposed to HDM proteinase fractions; assay type: cell-based, human; conditions: for inhibition of the permeability change caused by the serine proteinase fraction: E-64 10μM, fraction 94 azocoll units ml^−1, 18 h (FIG. 4b); for mannitol permeability: P<0.05, n=5
Protocol: (§1) Measurements of mannitol clearance were performed on confluent cell monolayers that had been propagated on 0.4μm pore diameter Costar Transwell™ inserts coated with an ungelled ultra-thin undercoat of Madrigel. Coating was achieved by addition of 250μl aliquots of Matrigel (diluted 1:500 v/v in EMEM) to the interior of the insert followed by ambient incubation for 60 min under aseptic conditions. The solution was then aspirated and the inserts gently washed with medium before the addition of a confluent density of cell suspension.
(§2) Cells (2-5×10^5 per cm^2 growth area) were plated onto Matrigel-coated inserts. We use the term ‘insert’ as meaning the filter unit containing the cells and the term ‘well’ as referring to the cavities of the tissue culture plate. To monitor growth and integrity, inserts were taken at random, washed gently in PBS and stained under subdued illumination with acridine orange and ethidium bromide (1mg ml^−1 each in PBS). Inserts were examined by fluorescence microscopy and were used only when confluence with high viability was attained.
(§3) At confluence, the medium was aspirated from the wells and replaced with serum- and bicarbonate-free EMEM buffered with 20 mM HEPES and containing 2 mM L-glutamine. The medium from the inserts was then gently removed and replaced with 300μl of serum-free EMEM containing [^14C]-mannitol (1μCi ml^−1 and 1 mg ml^−1 unlabelled mannitol in HEPES-buffered medium). The Transwell™ plates were then equilibrated for 30 min at 37° C. on a Luckham R100 orbital shaker. Triplicate 100μl aliquots of the unused labelled mannitol solution were sampled and their radioactivity content determined by liquid scintillation spectrometry (Beckman LS6000IC) following addition of 5 ml Opti-Fluor.
(§4) After the equilibration period, the inserts were placed in fresh wells containing 1 ml of serum-free HEPES buffered EMEM and incubated at 37° C. with continuous gentle shaking. The medium from the original wells was retained and its radioactivity content determined after the addition of 10 ml Opti-Fluor. […] At timed intervals, 20μl aliquots of the basolateral bathing fluid were removed and the amount of ^14C mannitol quantified as described above for the calculation of clearance volume.
Paracellular permeability of mannitol was determined in accordance with the procedure described in our copending U.K. Patent Application No. 9715058 and was calculated from measurements of clearance volume at defined time points. Clearance estimates were made over 3-5h and were calculated according to the relationship: [formula]
(§5) Under conditions where diffusion is the sole means of transepithelial movement of the solute, dVprobe/dt approximates closely to the permeability-surface area product thus allowing estimation of the permeability of mannitol in the composite system of cells, filter, unstirred layers and protein coating (Pt). Epithelial permeability can be calculated from the measured variable by considering the Matrigel-coated filter and unstirred layers as a system of series permeabilities. Thus: [formula]
Unstirred layer thicknesses are independent of membrane permeability under ideal conditions thus P3 in equations (3) and (4) are identical. Subtracting equations (2) and (3) thus permits the calculation of the permeability of the epithelial monolayer (5). [formula] […]

MDCK cell monolayers = experiment: Mannitol permeability of MDCK cell monolayers exposed to HDM proteinase fractions; assay type: cell-based, canine; conditions: for inhibition of the action of the serine proteinase fraction on mannitol permeability: AEBSF 100μM, fraction 127 azocoll units ml^−1, 18 h (FIG. 3b); for effect of inhibitor alone on intrinsic epithelial permeability: inhibitor per se, no proteinase fraction (FIG. 3)
Protocol: as §1, §2, §3, §4
Clearance estimates were made over 3-5h and were calculated according to the relationship: [formula]
as §5
Unstirred layer thicknesses are independent of membrane permeability under ideal conditions thus P3 in equations (3) and (4) are identical. Subtracting equations (2) and (3) thus permits the calculation of the permeability of the epithelial monolayer (5). [formula]
Analysis of variance was performed after log transformation of the permeability data and probability values for the different treatments assigned using the least significant difference test. Data are presented as the geometric mean values with indicated standard errors of n experimental observations. Probability levels of P<0.05 were considered statistically significant.

Der p 1 = target: T1, Der p 1; conditions: literature (Herbert et al. 1995; Hewitt et al. 1995, 1997); cited from earlier work
ICE/ced-3 caspase family = conditions: literature; cited from earlier work
Calu-3 cells = experiment: DNA fragmentation (agarose gel), Calu-3 cells; assay type: cell-based, human; conditions: BB-250 5μM, E-64 10μM; for inhibition of cysteine proteinase fraction-induced DNA fragmentation: fraction 80 azocoll units ml^−1 (FIG. 7b)
Protocol: Cells were plated on 60×15 mm petri dishes and grown for 2-4 days in serum-containing EMEM under tissue culture conditions in a 5% CO2 atmosphere. Cells were then exposed to treatments in serum-free EMEM containing 20 mM HEPES whilst under aerobic incubation at 37° C. At defined time points, cells were harvested with a scraper and pooled with detached cells in the supernatant. Cells were centrifuged at 550×g for 5 min and their DNA extracted (Nucleon II, Scotlab, Coatbridge, Stratchclyde). The extracted DNA was resuspended in 100μl TE buffer (10 mM Tris-HCL and 1 mM Na2EDTA) overnight at room temperature and its purity determined spectrophotometrically. Equal amounts of DNA were applied in 4:1 ratio with sample buffer (0.25% bromophenol blue and 40% w/v sucrose in water) to each lane of 2% (w/v) agarose gels and electrophoresis performed at 50V for 2-3h in TAE buffer (0.04M Tris-acetate and 0.001M EDTA). Bands of DNA in the gels (which had ethidium bromide incorporated into them) were visualized by ultra-violet light.

[2] = target: T2, HDM cysteine proteinase fraction (50% precipitate); experiment: Enzyme degradation of chromogenic substrates by the 50% ammonium sulphate precipitate; assay type: biochemical, D. pteronyssinus; conditions: data not shown
Description: HDM proteinase allergens have not yet been prepared in catalytically competent form by recombinant cellular expression of the mature enzyme protein. For convenience, and to enable future large scale screening of potential inhibitors in the absence of catalytically active recombinant proteins, we sought to separate the cysteine and serine proteinase activity by simple biochemical fractionation of spent medium in which HDM had been grown. During culture the HDM release allergens into the medium resulting in the accumulation of proteins suitable for purification. Spent medium from cultures of D. pteronyssinus (Commonwealth Serum Laboratory, Parkville, Australia) was dissolved in 5 volumes of phosphate buffered saline and then centrifuged at 48,400×g and 4° C. for 20 min. Ammonium sulphate was added gradually to the stirred supernatant at 4° C. to achieve a 50% saturated solution. After centrifugation (48,400×g, 20 min, 4° C.) the pellet, found by enzymatic assay to be enriched in cysteine proteinase activity, was redissolved in a minimum volume of distilled water. […] Protein content of the extracts was measured using the […] technique with serum albumin as standard (Smith et al, 1985). Proteinase activity was measured using the Azocoll degradation assay as described elsewhere (Herbert et al., 1995; Chavira et al., 1984). […]

Molecule | inhibition of the permeability change caused by the serine proteinase fraction (Calu-3 cell monolayers; Calu-3) | inhibition of the action of the serine proteinase fraction on mannitol permeability (MDCK cell monolayers) | effect of inhibitor alone on intrinsic epithelial permeability (MDCK cell monolayers) | inhibition of Der p 1 activity / effects (Der p 1) | inhibition of cysteine proteinase fraction-induced DNA fragmentation (Calu-3 cells) | also measured
Cl.NCCc1ccc(S(=O)(=O)F)cc1 [AEBSF, 4-(2-aminoethyl)-benzenesulphonyl fluoride hydrochloride] | ablated | inhibited | Neither inhibitor per se exerted any observable effect | – | – | inhibition of serine proteinase fraction-dependent changes in ZO-1/desmoplakin staining ([1]; AEBSF 100μM, fraction 94 azocoll units ml^−1): inhibited; inhibition of the action of the cysteine proteinase fraction on mannitol permeability (Calu-3 cell monolayers; Calu-3, AEBSF 100μM, fraction 80 azocoll units ml^−1, 18 h (FIG. 4a)): failed to inhibit; mannitol permeability (Calu-3 cell monolayers; Calu-3 treated with serine proteinase fraction plus AEBSF): 10.20±0.01 ×10−6 cm s^−1
N=C(N)c1ccc(CS(=O)(=O)F)cc1 [APMSF] | – | – | – | reported to be inhibited | – | –
CC(C)C[C@H](NC(=O)[C@H]1O[C@@H]1C(=O)O)C(=O)NCCCCN=C(N)N (relative stereo) [E-64, L-trans-epoxysuccinyl-leucylamido-(4-guanidino)-butane] | did not inhibit | – | no observable effect | sensitive to inhibition | inhibited | inhibition of cysteine proteinase fraction-dependent changes in ZO-1/desmoplakin staining ([1]; E-64 10μM, fraction 80 azocoll units ml^−1): inhibited; sensitivity of ICE/ced-3 caspases to the inhibitor (ICE/ced-3 caspase family): insensitive; mannitol permeability (Calu-3 cell monolayers; Calu-3 treated with cysteine proteinase fraction plus E-64): 4.84±0.32 ×10^−6 cm s^−1; inhibition of the effect of the cysteine proteinase fraction on mannitol permeability (MDCK cell monolayers; E-64 10μM, fraction 80 azocoll units ml^−1, 18 h (FIG. 3a)): attenuated; catalytic activity of the 50% precipitate [2]: inhibitable
CNC(=O)[C@H](Cc1ccccc1)NC(=O)[C@H](CC(C)C)[C@H](CS(=O)(=O)c1cccs1)C(=O)NO [BB-250, [4-(N-hydroxyamino)-2R-isobutyl-3S-(thiophen-2-yl-sulphonylmethyl)succinyl]-L-phenylalanine-N-methylamide] | – | – | – | – | attenuated | inhibition of serine proteinase fraction-induced DNA fragmentation (Calu-3 cells; fraction 94 azocoll units ml^−1 (FIG. 7b)): attenuated
B1 | – | less effectively | Neither inhibitor per se exerted any observable effect | – | – | –
